Assay results published in PubChem BioAssay (NCI).
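Assay format: 96-well plates, 48-hour exposure. The concentration for 50% growth inhibition is given as GI50. TGI denotes the concentration required for complete inhibition of growth.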

Tests used:
Test in all cases: NCI tumour cell line growth inhibition, 48 h
[1] = tested on: CCRF-CEM leukemia
[2] = tested on: TK-10 renal
[3] = tested on: KM12 colon
[4] = tested on: RPMI-8226 leukemia
[5] = tested on: MCF7 breast
[6] = tested on: DU-145 prostate
[7] = tested on: SW-620 colon
[8] = tested on: BT-549 breast
[9] = tested on: ACHN renal
[10] = tested on: SF-295 CNS

| SMILES | GI50 [1] [µM] | TGI [1] [µM] | GI50 [2] [µM] | TGI [2] [µM] | GI50 [3] [µM] | TGI [3] [µM] | GI50 [4] [µM] | TGI [4] [µM] | GI50 [5] [µM] | TGI [5] [µM] | GI50 [6] [µM] | TGI [6] [µM] | GI50 [7] [µM] | TGI [7] [µM] | GI50 [8] [µM] | TGI [8] [µM] | GI50 [9] [µM] | TGI [9] [µM] | GI50 [10] [µM] | TGI [10] [µM] |
| --- | --- | --- | --- | --- | --- | --- | --- | --- | --- | --- | --- | --- | --- | --- | --- | --- | --- | --- | --- | --- |
| CC1(C)CCC[C@]2(C)c3ccccc3C(=O)CC12 (stereo not given in full) | 31.7 | > 100 | 69 | > 100 | 23.8 | > 100 | 29.7 | > 100 | 38.2 | > 100 | 65.7 | > 100 | 31 | > 100 | 39.4 | > 100 | 67.4 | > 100 | 40.7 | > 100 |
| CC(C)c1ccc(NC(=O)Cc2ccc(Nc3ncnc4cc(-c5cnn(CCN(C)C)c5)ccc34)cc2)cc1 | 0.0522 | 4.68 | 1.72 | 3.79 | 0.0641 | 1.39 | 1.95 | 4.75 | 1.06 | 3.04 | 1.46 | 2.83 | 1.18 | 2.76 | 3.96 | > 10 | 2.45 | > 10 | 2.47 | > 10 |
| COc1cc2nccc(Oc3ccc(NC(=O)c4cn(C(C)C)c(=O)n(-c5ccc(F)cc5)c4=O)cc3F)c2cc1OC | > 100 | > 100 | > 70.7 | > 100 | 0.0453 | > 100 | > 100 | > 100 | > 100 | > 100 | > 100 | > 100 | 5.77 | > 100 | 3.29 | 11.3 | 2.69 | > 26.3 | 0.435 | > 100 |
| COc1cc(NCCCCCN=C(N)NC(N)=NC(C)C)c2ncccc2c1 | 2.2 | 17.4 | 6.14 | 19.9 | 1.07 | 3.28 | 1.26 | 20 | 0.0313 | 0.16 | 10.3 | 22.3 | 0.927 | 14 | 2.03 | 5.61 | 14.8 | 31.2 | 13 | 29.2 |
| COc1cc2c3c(n(CCCNCCCN)c(=O)c2cc1OC)-c1cc2c(cc1C3=O)OCO2 | 0.22 | 15.8 | 9.74 | 27.9 | 3.51 | 16.9 | 2.44 | 11.8 | 0.504 | 5.08 | 3.08 | 13.4 | 3.29 | 16.4 | 6.49 | 20.6 | 3.14 | 13.7 | 3.69 | 16.7 |
| C[N+](C)=c1ccc2nc3c(cc(NCCCNc4cc5oc6cc(=[N+](C)C)ccc-6nc5c5ccccc45)c4ccccc43)oc-2c1 | 4.39 | 21.7 | 17.3 | 39.3 | 2.55 | 8.81 | 1.69 | 13.1 | 0.885 | 3.23 | 1.53 | 2.91 | 1.77 | 4.02 | 5.97 | > 64.3 | 2.17 | 11.3 | 4.64 | 31.8 |
